# System: E. coli ATCC25922
# Assay: Antibacterial activity in combination with minocycline (growth inhibition)
# Type: cell-based
# Settings: Escherichia coli, ATCC25922, compound at 25 μM; minocycline 0.25 μg/mL; OD625 23 h minus 1 h; read-out: residual growth of E. coli ATCC25922 (% of uninhibited control) with minocycline
# Protocol: Antibacterial activity in combination with minocycline or with linezolid
# Inhibition of growth was measured with E. coli ATCC25922 and P. aeruginosa PAO1 in a 96-well plate format. Cation-adjusted Müller-Hinton broth (caMHB) was inoculated with an overnight culture and incubated at 37° C. on a shaker until OD625 reached 0.6 to 0.7. Density was adjusted to OD600=0.5 by addition of caMHB. 35 μL of the suspension were diluted to 35 mL with caMHB and supplemented with minocycline at the subinhibitory doses of 0.25 μg/mL for E. coli and 8 μg/mL for P. aeruginosa or with linezolid at the subinhibitory dose of 128 μg/mL for E. coli and P. aeruginosa. Each well contained 1 μL of test compound in 100 μL caMHB with minocycline or with linezolid.
# Plates were incubated at 37° C. on a plate shaker. OD625 was measured at 1 h, 6 h, and at 23 h.
# The difference between OD at 23 h and at 1 h was taken as measure for cell density and compared to controls without inhibitor (i.e. uninhibited control). Results were expressed as residual growth (% of uninhibited control). Enhancement of minocycline or linezolid activity caused reduced residual growth.
row,SMILES,activity at 25 µM [%]
1,Clc1ccc(COc2cccc(CNCC3CNC3)c2)c(Br)c1 [Example 18],≤ 10
2,Clc1ccc(-c2ccc(CNCC3CNC3)cc2)cc1 [Example 25],≤ 10
3,CC(C)(c1ccccc1)c1ccc(OCCCNCC2CNC2)cc1 [Example 29],≤ 10
4,Clc1ccc(COc2cccc(CNCC3CCNC3)c2)c(Br)c1 (stereo not drawn) [Example 30],≤ 10
5,CC(C)(c1ccccc1)c1ccc(OCCCNCC2CCNCC2)cc1 [Example 31],≤ 10
6,CC(C)(c1ccccc1)c1ccc(OCCCNCC2CCNC2)cc1 (stereo not drawn) [Example 32],≤ 10
7,Clc1ccc(COc2ccccc2CNCC2CNC2)c(Br)c1 [Example 33],≤ 10
8,Fc1ccc(COc2cccc(CNCC3CNC3)c2)c(F)c1 [Example 34],≤ 10
9,Clc1ccc(COc2cccc(CNCC3CCNCC3)c2)c(Br)c1 [Example 35],≤ 10
10,"Clc1cc(CNCC2CNC2)cc(OCc2ccc(Cl)cc2Br)c1 [Example 37, N-(azetidin-3-ylmethyl)-1-[3-[(2-bromo-4-chloro-phenyl)methoxy]-5-chloro-phenyl]methanamine]",≤ 10
11,Clc1ccc(OCc2cccc(CNCC3CNC3)c2)c(Br)c1 [Example 38],≤ 10
12,CC(C)(c1ccccc1)c1ccc(OCCNCC2CCNCC2)cc1 [Example 39],≤ 10
13,Clc1cc(Cl)cc(COc2cccc(CNCC3CNC3)c2)c1 [Example 40],≤ 10
14,Brc1ccccc1COc1cccc(CNCC2CNC2)c1 [Example 41],≤ 10
15,CC(C)(c1ccccc1)c1ccc(OCCNCC2CCNC2)cc1 (stereo not drawn) [Example 42],≤ 10
16,Fc1cc(F)cc(COc2cccc(CNCC3CNC3)c2)c1 [Example 43],≤ 10
17,CC(C)(c1ccccc1)c1ccc(CNCC2CCNC2)cc1 (stereo not drawn) [Example 44],≤ 10
18,CC(C)(c1ccccc1)c1ccc(CNCC2CNC2)cc1 [Example 45],≤ 10
19,CC(C)(c1ccccc1)c1ccc(CNCC2CCNCC2)cc1 [Example 46],≤ 10
20,FC(F)(F)c1cc(Br)ccc1COc1cccc(CNCC2CNC2)c1 [Example 47],≤ 10
21,FC(F)(F)c1ccc(COc2cccc(CNCC3CNC3)c2)c(Cl)c1 [Example 49],≤ 10
22,"Clc1ccc(CSc2cccc(CNCC3CNC3)c2)c(Br)c1 [Example 51, N-(azetidin-3-ylmethyl)-1-[3-[(2-bromo-4-chloro-phenyl)methylsulfanyl]phenyl]methanamine]",≤ 10
23,Fc1cc(Br)ccc1COc1ccc(CNCC2CCNCC2)cc1 [Example 52],≤ 10

row,SMILES,activity at 25 µM [%]
1,Clc1ccc(OCc2cccc(CNC3CCNCC3)c2)c(Br)c1 [Example 53],≤ 10
2,Fc1cc(Br)ccc1COc1ccc(CNCC2CCNC2)cc1 (stereo not drawn) [Example 55],≤ 10
3,Fc1cc(Br)ccc1COc1ccc(CNCC2CNC2)cc1 [Example 56],≤ 10
4,Clc1ccc(OCc2cccc(CCNCC3CNC3)c2)c(Br)c1 [Example 58],≤ 10
5,CC(C)(C)c1ccc(COc2ccc(CNC3CCNCC3)cc2)cc1 [Example 59],≤ 10
6,Fc1cc(Br)ccc1COc1ccc(CNC2CCNCC2)cc1 [Example 60],≤ 10
7,Clc1ccc(/C=C/c2cccc(CNCC3CNC3)c2)c(Br)c1 [Example 61],≤ 10
8,Clc1ccc(-c2ccc(CNCC3CCNC3)cc2)c(Br)c1 (stereo not drawn) [Example 62],≤ 10
9,"Clc1ccc(CCc2cccc(CNCC3CNC3)c2)c(Br)c1 [Example 64, N-(azetidin-3-ylmethyl)-1-[3-[2-(2-bromo-4-chloro-phenyl)ethyl]phenyl]methanamine]",≤ 10
10,Clc1ccc(OCc2cccc(CNCC3CNCCO3)c2)c(Br)c1 (stereo not drawn) [Example 65],≤ 10
11,Clc1ccc(COc2ccc(CNCC3CNC3)cc2)cc1Cl [Example 66],≤ 10
12,Clc1ccc(COc2ccc(CNCC3CCNCC3)cc2)cc1Cl [Example 67],≤ 10
13,"Clc1ccc(-c2ccc(CNCC3CNC3)cc2)c(Br)c1 [Example 68, N-(azetidin-3-ylmethyl)-1-[4-(2-bromo-4-chloro-phenyl)phenyl]methanamine]",≤ 10
14,Clc1ccc(COc2ccc(CNCC3CCNC3)cc2)cc1Cl (stereo not drawn) [Example 70],≤ 10
15,Brc1ccccc1COc1ccc(CNC2CCNCC2)cc1 [Example 71],≤ 10
16,Brc1ccccc1COc1ccc(CNCC2CCNCC2)cc1 [Example 72],≤ 10
17,Clc1ccc(OCc2cccc(CCCNCC3CNC3)c2)c(Br)c1 [Example 73],≤ 10
18,Clc1ccc(-c2cccc(CNCC3CNC3)c2)c(Br)c1 [Example 75],≤ 10
19,Brc1ccccc1COc1ccc(CNCC2CCNC2)cc1 (stereo not drawn) [Example 80],≤ 10
20,Clc1ccc(Oc2ccc(CNCC3CNC3)cc2)c(Br)c1 [Example 81],≤ 10
21,Clc1ccc(Oc2ccccc2CNCC2CCNC2)c(Br)c1 (stereo not drawn) [Example 84],≤ 10
22,N#Cc1ccc(COc2ccc(CNCC3CNC3)cc2)c(Br)c1 [Example 85],≤ 10
23,"Clc1ccc(Oc2cccc(CNCC3CCNC3)c2)c(Br)c1 (stereo not drawn) [Example 88, 1-[3-(2-bromo-4-chloro-phenoxy)phenyl]-N-(pyrrolidin-3-ylmethyl)methanamine]",≤ 10

row,SMILES,activity at 25 µM [%]
1,Clc1ccc(Oc2cccc(CNCC3CNC3)c2)c(Br)c1 [Example 90],≤ 10
2,c1ccc(-c2cccc(COc3cccc(CNCC4CNC4)c3)c2)cc1 [Example 94],≤ 10
3,c1ccc(-c2ccc(COc3cccc(CNCC4CNC4)c3)cc2)cc1 [Example 95],≤ 10
4,Clc1ccc(OCCOc2ccc(CNCC3CNC3)cc2)c(Br)c1 [Example 96],≤ 10
5,Clc1ccc(COc2ccc(Br)c(CNCC3CNC3)c2)c(Br)c1 [Example 97],≤ 10
6,Fc1cc(CNCC2CNC2)cc(OCc2ccc(Cl)cc2Br)c1 [Example 103],≤ 10
7,FC(F)(F)c1cc(CNCC2CNC2)cc(OCc2ccc(Cl)cc2Br)c1 [Example 104],≤ 10
8,CC(NCC1CNC1)c1ccc(OCc2ccc(Cl)cc2Br)cc1 (stereo not drawn) [Example 105],≤ 10
9,C=CCOc1cc(CNCC2CNC2)cc(OCc2ccc(Cl)cc2Br)c1 [Example 106],≤ 10
10,C=CCOc1cc(CNCC2CCNC2)cc(OCc2ccc(Cl)cc2Br)c1 (stereo not drawn) [Example 108],≤ 10
11,C=CCOc1cc(CNCC2CCNCC2)cc(OCc2ccc(Cl)cc2Br)c1 [Example 109],≤ 10
12,Clc1ccc(COc2cccc(CCCNCC3CNC3)c2)c(Br)c1 [Example 111],≤ 10
13,Clc1ccc(COc2cccc(CCCNCC3CCNC3)c2)c(Br)c1 (stereo not drawn) [Example 112],≤ 10
14,Clc1ccc(COc2ccccc2CCCNCC2CNC2)c(Br)c1 [Example 113],≤ 10
15,Clc1ccc(COc2ccccc2CCCNCC2CCNC2)c(Br)c1 (stereo not drawn) [Example 114],≤ 10
16,Clc1ccc(COc2ccc(CCCNCC3CNC3)cc2)c(Br)c1 [Example 116],≤ 10
17,Clc1ccc(COc2ccc(CCCNCC3CCNC3)cc2)c(Br)c1 (stereo not drawn) [Example 117],≤ 10
18,"O=C(NCc1ccccc1)c1cc(CNCC2CNC2)cc(OCc2ccc(Cl)cc2Br)c1 [Example 119, 3-[(azetidin-3-ylmethylamino)methyl]-N-benzyl-5-[(2-bromo-4-chloro-phenyl)methoxy]-benzamide]",≤ 10
19,Brc1ccc(/C=C/c2ccccc2)cc1OCCCNCC1CNC1 [Example 120],≤ 10
20,Clc1ccc(COc2cccc(CCNCC3CNC3)c2)c(Br)c1 [Example 121],≤ 10
21,Clc1ccc(COc2cccc(CCNCC3CCNC3)c2)c(Br)c1 (stereo not drawn) [Example 122],≤ 10
22,Clc1ccc(COc2ccccc2CCNCC2CCNC2)c(Br)c1 (stereo not drawn) [Example 123],≤ 10

# Same assay, conditions: Escherichia coli, ATCC25922, compound at 50 μM; minocycline 0.25 μg/mL; OD625 23 h minus 1 h; read-out: residual growth of E. coli ATCC25922 (% of uninhibited control) with minocycline
row,SMILES,activity at 50 µM [%]
1,Clc1ccc(COc2ccccc2CNCC2CCNCC2)cc1 [Example 5],≤ 50
2,Clc1ccccc1COc1ccccc1CNCC1CCNCC1 [Example 8],≤ 50
3,Clc1ccc(COc2cccc(CNCC3CNC3)c2)cc1 [Example 13],≤ 50
4,Clc1ccc(COc2ccccc2CNCC2CNC2)cc1 [Example 22],≤ 50
5,"Clc1ccc(COc2cccc(NCC3CNC3)c2)cc1 [Example 23, N-(azetidin-3-ylmethyl)-3-[(4-chlorophenyl)methoxy]aniline]",≤ 50
6,Clc1ccc(-c2ccccc2CNCC2CCNC2)c(Br)c1 (stereo not drawn) [Example 69],≤ 50

# Same assay, conditions: Escherichia coli, ATCC25922, read-out: residual growth of E. coli ATCC25922 (% of uninhibited control) with minocycline, compound at 25 μM; minocycline 0.25 μg/mL; OD625 23 h minus 1 h
row,SMILES,activity at 25 µM [%]
1,"Clc1ccc(C=CCc2cccc(CNCC3CNC3)c2)c(Br)c1 (mixture of isomers) [Example 168, N-(azetidin-3-ylmethyl)-1-[3-[(Z/E)-3-(2-bromo-4-chloro-phenyl)allyl]phenyl]methanamine]",≤ 10

# Source: patent US10464896B2, “Efflux-pump inhibitors and therapeutic uses thereof” (Basilea Pharmaceutica International AG, priority 2015, dated 2019)
